Patent US20220401439A1, “INTRANASAL PHARMACEUTICAL COMPOSITIONS OF CGRP INHIBITORS” (Biohaven Pharmaceutical Holding Company Ltd., priority 2019, published 2022)

Experiments:
[1] = system: patients receiving acute treatment of migraine; test: Phase 2/3 trial BHV3500-201 (Study 201), efficacy in acute treatment of migraine; format: in vivo, human; details: for Return to normal function at 30 minutes postdose, n/N (%) / Return to normal function at 60 minutes postdose, n/N (%) / Return to normal function at 2 hours postdose, n/N (%): mITT subjects with functional disability at on-study migraine attack onset; for Pain relapse from 2 to 48 hours postdose, n/N (%): mITT subjects with pain freedom at 2 hours postdose; for Nausea freedom at 2 hours postdose, n/N (%) / Phonophobia freedom at 2 hours postdose, n/N (%) / Photophobia freedom at 2 hours postdose, n/N (%): mITT subjects with symptom present at on-study migraine attack onset
[2] = Phase 2/3 trial BHV3500-201 (Study 201), safety, adverse events and liver function tests; format: in vivo, human
Text: The majority (>80%) of AEs were mild in intensity.

clinical = details: human, in vivo; for AUC(0-inf): AUC[0-inf] (ng · h/mL) GM; for AUC(0-t): AUC[0-t] (ng · h/mL) GM; for Cmax: Cmax (ng/mL) GM
Text: BHV3500-101 is a completed Phase 1, single-center, placebo-controlled, randomized, double-blind, sequential SAD study. This study consisted of up to 11 cohorts.
In total, 41 subjects were included in the PK analyses.

logD of drug substance = format: physicochemical; details: mono-hydrochloride salt form
[3] = zavegepant 10 mg vs placebo, subjects with symptom present at onset, CMH weighting
[4] = zavegepant 10 mg, mITT subjects
[5] = zavegepant 20 mg vs placebo, mITT, CMH weighting
[6] = zavegepant 20 mg vs placebo, subjects with functional disability at onset, CMH weighting
[7] = zavegepant 20 mg vs placebo, subjects with symptom present at onset, CMH weighting
[8] = zavegepant 20 mg, mITT subjects

Cc1cc(C[C@@H](NC(=O)N2CCC(c3cc4ccccc4[nH]c3=O)CC2)C(=O)N2CCN(C3CCN(C)CC3)CC2)cc2cn[nH]c12 [Zavegepant, (R)—N-(3-(7-methyl-1H-indazol-5-yl)-1-(4-(1-methylpiperidin-4-yl)piperazin-1-yl)-1-oxopropan-2-yl)-4-(2-oxo-1,2-dihydroquinolin-3-yl)piperidine-1-carboxamide]
Phonophobia freedom at 2 hours postdose, Stratified Percentage Difference (Zavegepant-Placebo) [1, 3]: 10.8%
Photophobia freedom at 2 hours postdose, Stratified Percentage Difference (Zavegepant-Placebo) [1, 3]: 5.1%
Pain relief at 30 minutes postdose, n/N (%) [1, 4]: (29.9) %
Pain relief at 60 minutes postdose, n/N (%) [1, 4]: (46.0) %
Rescue medication use within 24 hours postdose, n/N (%) [1, 4]: (26.0) %
Sustained pain freedom from 2 to 24 hours postdose, n/N (%) [1, 4]: (15.1) %
Sustained pain freedom from 2 to 48 hours postdose, n/N (%) [1, 4]: (13.8) %
Sustained pain relief from 2 to 24 hours postdose, n/N (%) [1, 4]: (42.5) %
Sustained pain relief from 2 to 48 hours postdose, n/N (%) [1, 4]: (39.6) %
Return to normal function at 30 minutes postdose, n/N (%) ([1]; zavegepant 10 mg): (7.6) %
Return to normal function at 60 minutes postdose, n/N (%) ([1]; zavegepant 10 mg): (18.9) %
Return to normal function at 2 hours postdose, n/N (%) ([1]; zavegepant 10 mg): (34.5) %
Pain relapse from 2 to 48 hours postdose, n/N (%) ([1]; zavegepant 10 mg): (33.0) %
Nausea freedom at 2 hours postdose, n/N (%) ([1]; zavegepant 10 mg): (53.9) %
Phonophobia freedom at 2 hours postdose, n/N (%) ([1]; zavegepant 10 mg): (44.8) %
Photophobia freedom at 2 hours postdose, n/N (%) ([1]; zavegepant 10 mg): (35.6) %
Pain relief at 2 hours postdose, n/N (%) ([1]; zavegepant 20 mg intranasal single dose, mITT subjects): (61.2) %
Pain relief at 30 minutes postdose, Stratified Percentage Difference (Zavegepant-Placebo) [1, 5]: 1.9%
Pain relief at 60 minutes postdose, Stratified Percentage Difference (Zavegepant-Placebo) [1, 5]: 7.8%
Rescue medication use within 24 hours postdose, Stratified Percentage Difference (Zavegepant-Placebo) [1, 5]: −7.1%
Sustained pain freedom from 2 to 24 hours postdose, Stratified Percentage Difference (Zavegepant-Placebo) [1, 5]: 6.7%
Sustained pain freedom from 2 to 48 hours postdose, Stratified Percentage Difference (Zavegepant-Placebo) [1, 5]: 5.7%
Sustained pain relief from 2 to 24 hours postdose, Stratified Percentage Difference (Zavegepant-Placebo) [1, 5]: 8.9%
Sustained pain relief from 2 to 48 hours postdose, Stratified Percentage Difference (Zavegepant-Placebo) [1, 5]: 6.2%
Pain relief at 2 hours postdose, Stratified Percentage Difference (Zavegepant-Placebo) ([1]; zavegepant 20 mg vs placebo, mITT, stratified by prophylactic migraine medication use, CMH weighting): 7.5%
Return to normal function at 30 minutes postdose, Stratified Percentage Difference (Zavegepant-Placebo) [1, 6]: 4.5%
Return to normal function at 60 minutes postdose, Stratified Percentage Difference (Zavegepant-Placebo) [1, 6]: 1.7%
Return to normal function at 2 hours postdose, Stratified Percentage Difference (Zavegepant-Placebo) [1, 6]: 7.3%
Pain relapse from 2 to 48 hours postdose, Stratified Percentage Difference (Zavegepant-Placebo) ([1]; zavegepant 20 mg vs placebo, subjects with pain freedom at 2 hours postdose, CMH weighting): −12.5%
Nausea freedom at 2 hours postdose, Stratified Percentage Difference (Zavegepant-Placebo) [1, 7]: 3.7%
Phonophobia freedom at 2 hours postdose, Stratified Percentage Difference (Zavegepant-Placebo) [1, 7]: 9.3%
Photophobia freedom at 2 hours postdose, Stratified Percentage Difference (Zavegepant-Placebo) [1, 7]: 7.4%
Pain relief at 30 minutes postdose, n/N (%) [1, 8]: (26.6) %
Pain relief at 60 minutes postdose, n/N (%) [1, 8]: (49.8) %
Rescue medication use within 24 hours postdose, n/N (%) [1, 8]: (20.2) %
Sustained pain freedom from 2 to 24 hours postdose, n/N (%) [1, 8]: (15.7) %
Sustained pain freedom from 2 to 48 hours postdose, n/N (%) [1, 8]: (13.2) %
Sustained pain relief from 2 to 24 hours postdose, n/N (%) [1, 8]: (44.5) %
Sustained pain relief from 2 to 48 hours postdose, n/N (%) [1, 8]: (38.8) %
Return to normal function at 30 minutes postdose, n/N (%) ([1]; zavegepant 20 mg): (9.9) %
Return to normal function at 60 minutes postdose, n/N (%) ([1]; zavegepant 20 mg): (18.8) %
Return to normal function at 2 hours postdose, n/N (%) ([1]; zavegepant 20 mg): (34.7) %
Pain relapse from 2 to 48 hours postdose, n/N (%) ([1]; zavegepant 20 mg): (37.6) %
Nausea freedom at 2 hours postdose, n/N (%) ([1]; zavegepant 20 mg): (54.7) %
Phonophobia freedom at 2 hours postdose, n/N (%) ([1]; zavegepant 20 mg): (43.3) %
Photophobia freedom at 2 hours postdose, n/N (%) ([1]; zavegepant 20 mg): (37.9) %
ALT or AST > 3 × ULN (subjects) ([2]; 5 mg (N = 388)): 0
Bilirubin > 2 × ULN (subjects) ([2]; 5 mg (N = 388)): 0
ALT or AST > 3 × ULN (subjects) ([2]; 10 mg (N = 394)): 0
Bilirubin > 2 × ULN (subjects) ([2]; 10 mg (N = 394)): 0
ALT or AST > 3 × ULN (subjects) ([2]; 20 mg (N = 403)): 0
Bilirubin > 2 × ULN (subjects) ([2]; 20 mg (N = 403)): 0
ALT or AST > 3 × ULN (subjects) ([2]; All zavegepant (N = 1185)): 0
Bilirubin > 2 × ULN (subjects) ([2]; All zavegepant (N = 1185)): 0
hepatotoxicity signal (AST or ALT >3xULN, total bilirubin >2xULN) ([2]; any treatment arm): no signal of hepatoxicity
tolerability and safety ([2]; intranasal, single dose trial): well tolerated and safe
AEs mild in intensity ([2]; single dose trial): > 80%
median Tmax, range across doses (clinical): 32.4 to 46.2 min
median t1/2, range across doses (clinical): 150 to 264 min
AUC(0-inf) (clinical; inhaled or intranasal, 1 mg): 3.5 ng·h/mL
AUC(0-t) (clinical; inhaled or intranasal, 1 mg): 2.34 ng·h/mL
Cmax (clinical; inhaled or intranasal, 1 mg): 1.34 ng/mL
Tmax (clinical; inhaled or intranasal, 1 mg, Tmax (h) Median): 57.6 min
half-life (clinical; inhaled or intranasal, 1 mg, t1/2 el (h) Median): 98.4 min
AUC(0-inf) (clinical; inhaled or intranasal, 3 mg): 9.75 ng·h/mL
AUC(0-t) (clinical; inhaled or intranasal, 3 mg): 7.85 ng·h/mL
Cmax (clinical; inhaled or intranasal, 3 mg): 3.68 ng/mL
Tmax (clinical; inhaled or intranasal, 3 mg, Tmax (h) Median): 46.8 min
half-life (clinical; inhaled or intranasal, 3 mg, t1/2 el (h) Median): 134 min
AUC(0-inf) (clinical; inhaled or intranasal, 5 mg): 20.9 ng·h/mL
AUC(0-t) (clinical; inhaled or intranasal, 5 mg): 18.8 ng·h/mL
Cmax (clinical; inhaled or intranasal, 5 mg): 7.8 ng/mL
Tmax (clinical; inhaled or intranasal, 5 mg, Tmax (h) Median): 36 min
half-life (clinical; inhaled or intranasal, 5 mg, t1/2 el (h) Median): 142 min
Tmax (h) Median (clinical; inhaled or intranasal, 10 mg): 0.54 h
AUC(0-inf) (clinical; inhaled or intranasal, 10 mg): 28.5 ng·h/mL
AUC(0-t) (clinical; inhaled or intranasal, 10 mg): 26.2 ng·h/mL
Cmax (clinical; inhaled or intranasal, 10 mg): 13.4 ng/mL
Tmax (clinical; inhaled or intranasal, 10 mg, Tmax (h) Median): 32.4 min
half-life (clinical; inhaled or intranasal, 10 mg, t1/2 el (h) Median): 175 min
Tmax (clinical; inhaled or intranasal, Tmax (h) Median): 46.2 min
half-life (clinical; inhaled or intranasal, t1/2 el (h) Median): 143 min
Tmax (clinical; median Tmax, range across doses): 32.4 to 57.6 min
half-life (clinical; median t1/2, range across doses): 96 to 282 min
logD (logD of drug substance): 1.21
